Our source for the IC50 values is patent US7238720B2, “Pharmaceutical use of N-carbamoylazole derivatives” (Eisai R & D Management Co. Ltd., priority 2001, dated 2007).

T1 sequence (P22411 whole entry): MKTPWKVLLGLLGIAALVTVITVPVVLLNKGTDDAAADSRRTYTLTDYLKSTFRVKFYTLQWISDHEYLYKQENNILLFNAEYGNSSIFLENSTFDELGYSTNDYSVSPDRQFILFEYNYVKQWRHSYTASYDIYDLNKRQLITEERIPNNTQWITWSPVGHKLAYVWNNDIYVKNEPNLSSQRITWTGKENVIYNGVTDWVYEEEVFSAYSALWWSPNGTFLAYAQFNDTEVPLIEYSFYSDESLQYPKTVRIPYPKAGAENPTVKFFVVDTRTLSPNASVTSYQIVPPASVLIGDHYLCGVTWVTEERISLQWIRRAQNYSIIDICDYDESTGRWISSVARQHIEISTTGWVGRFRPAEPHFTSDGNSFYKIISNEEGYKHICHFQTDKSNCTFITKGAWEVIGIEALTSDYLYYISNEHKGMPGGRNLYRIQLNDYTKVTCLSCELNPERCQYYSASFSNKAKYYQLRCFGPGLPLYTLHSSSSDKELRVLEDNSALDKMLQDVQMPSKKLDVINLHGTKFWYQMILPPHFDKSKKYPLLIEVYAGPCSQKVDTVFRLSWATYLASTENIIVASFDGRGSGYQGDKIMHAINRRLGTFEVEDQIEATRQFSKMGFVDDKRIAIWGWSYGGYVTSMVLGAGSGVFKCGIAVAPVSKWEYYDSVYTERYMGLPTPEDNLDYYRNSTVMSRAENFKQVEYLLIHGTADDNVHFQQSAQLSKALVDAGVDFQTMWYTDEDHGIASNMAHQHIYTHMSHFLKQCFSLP

The experiment has as its target T1, DPP-IV, obtained from porcine kidneys (Sus scrofa, UniProt P22411).
T1 construct: DPP-IV, obtained from porcine kidneys; from tissue; host or cells: porcine kidney
The experiment is described as follows: Measurement of DPPIV inhibiting effects (Gly-Pro-p-nitroanilide, absorbance at 405 nm). It counts as biochemical. Conditions: porcine kidney DPP-IV 10 mU/mL, 20 min preincubation, Gly-Pro-p-nitroanilide 0.33 mM, pH 7.4. The method, then: Measurement of DPPIV Inhibiting Effects
DPP-IV, obtained from porcine kidneys, was dissolved in a reaction buffer solution (50 mM Tris-HCl, pH 7.4, 0.1% BSA) such that the concentration of DPP-IV was at 10 mU/mL. This solution (110 μl) was placed into test tubes, to which compounds to be tested were further added at a quantity of 15 μl and incubated at room temperature for 20 minutes. Twenty-five microliters of a solution in which Gly-Pro-p-nitroanilide was dissolved at 2 mM was added (final concentration, 0.33 mM) to start the enzymatic reaction. The reaction time was 20 minutes. The reaction was stopped by the addition of 25 μl of 1 N phosphoric acid.
As for `CN(C)C(=O)n1cnc(SC2CCCCC2)n1` [Example 14, 3-Cyclohexylthio-1-dimethylcarbamoyl-1H-1,2,4-triazole], the IC50 (commonly the concentration that inhibits the measured activity by half) turned out to be 2220 nM.

On to `CN(C)C(=O)n1cnc(SCC23CC4CC(CC(C4)C2)C3)n1` [Example 18, 3-(1-Adamantylmethyl)thio-1-dimethylcarbamoyl-1H-1,2,4-triazole], for which the IC50 amounted to 4530 nM.

As to `Cc1nc2ccccn2c1S(=O)(=O)c1ncn(C(=O)N(C)C)n1` [Example 51, 3-(2-Methylimidazo[1,2-a]pyridin-3-yl)sulfonyl-1-dimethylcarbamoyl-1H-1,2,4-triazole], the midpoint of inhibition, the IC50, lay at 106 nM.

In turn, `CN(C)C(=O)n1cnc(S(=O)(=O)c2cc(F)c(C#N)cc2F)n1` [Example 45, 3-(4-Cyano-2,5-difluorophenyl)sulfonyl-1-dimethylcarbamoyl-1H-1,2,4-triazole] showed an IC50 of 32.4 nM.

Molecule `CCN(C)C(=O)n1cnc(S(=O)(=O)c2c(C)cc(C)cc2C)n1` [Example 36, 3-(2,4,6-Trimethylphenyl)sulfonyl-1-(N-methyl-N-ethylcarbamoyl)-1H-1,2,4-triazole] yielded an IC50 of 0.347 nM. This IC50 is about 93-fold lower than that of the molecule before.

Regarding `CN(C)C(=O)n1cnc(S(=O)(=O)N2CCc3ccccc32)n1` [Example 57, 3-(2,3-Dihydro-1H-indol-1-yl)sulfonyl-1-dimethylcarbamoyl-1H-1,2,4-triazole], the IC50 came out at 230 nM.

`CCN(C)C(=O)n1cnc(S(=O)(=O)[C@@H]2C[C@@H]3CC[C@H]2C3)n1` (relative stereo) [Example 24, 3-(Endo-norbornan-2-yl)sulfonyl-1-(N-methyl-N-ethylcarbamoyl)-1H-1,2,4-triazole] came in with an IC50 of 21.5 nM.

As for `CN(C)C(=O)n1cnc(S(=O)(=O)C(c2ccccc2)c2ccccc2)n1` [Example 7, 3-(Diphenylmethyl)sulfonyl-1-dimethylcarbamoyl-1H-1,2,4-triazole], the IC50 was 192 nM.

With `CN(C)C(=O)n1cnc(S(=O)(=O)C2CCCCC2)n1` [Example 15, 3-Cyclohexylsulfonyl-1-dimethylcarbamoyl-1H-1,2,4-triazole], 311 nM corresponded to half-maximal inhibition (IC50). Against the preceding molecule, the IC50 is about 1.6-fold higher.

Take `CN(C)C(=O)n1cnc(S(=O)(=O)Cc2ccc(C(C)(C)C)cc2)n1` [Example 5, 3-(4-Tert-butylbenzyl)sulfonyl-1-dimethylcarbamoyl-1H-1,2,4-triazole]: the midpoint of inhibition, the IC50, lay at 1350 nM.

Molecule `CN(C)C(=O)n1cnc(S(=O)(=O)N2C3CCCC2CC3)n1` [Example 55, 3-(8-Azabicyclo[3.2.1]octan-8-yl)sulfonyl-1-dimethylcarbamoyl-1H-1,2,4-triazole] came in with an IC50 of 96.1 nM.

`CN(C)C(=O)n1cnc(SC(c2ccc(F)cc2)c2ccc(F)cc2)n1` [Example 8, 3-[Bis(4-fluorophenyl)methyl]thio-1-dimethylcarbamoyl-1H-1,2,4-triazole] gave an IC50 of 3360 nM.

For the molecule `Cc1noc(C)c1Sc1ncn(C(=O)N(C)C)n1` [Example 46, 3-(3,5-Dimethylisoxazol-4-yl)thio-1-dimethylcarbamoyl-1H-1,2,4-triazole], it took 1770 nM to reach half-maximal inhibition (IC50).

In turn, `Cc1ccc(S(=O)(=O)c2ccn(C(=O)N(C)C)n2)cc1` [Example 59, 3-(4-Toluenesulfonyl)-1-dimethylcarbamoyl-1H-pyrazole] had an IC50 of 4220 nM.

`Cc1ccc(S(=O)(=O)c2ncn(C(=O)N(C)C)n2)cc1` [Example 60, 3-(4-Toluenesulfonyl)-1-dimethylcarbamoyl-1H-1,2,4-triazole]: the IC50 was 335 nM.

Turning to `Cc1cc(C)c(Sc2ncn(C(=O)N(C)C)n2)c(C)c1` [Example 32, 3-(2,4,6-Trimethylphenyl)thio-1-dimethylcarbamoyl-1H-1,2,4-triazole], the IC50 was 3690 nM.

Turning to `Cc1cc(C)n(S(=O)(=O)c2ncn(C(=O)N(C)C)n2)n1` [Example 56, 3-(3,5-Dimethylpyrazol-1-yl)sulfonyl-1-dimethylcarbamoyl-1H-1,2,4-triazole], the half-inhibitory concentration (IC50) came to 101 nM. Compared with the last molecule, the IC50 is about 37-fold lower.

In turn, `CN(C)C(=O)n1cnc(S(=O)(=O)C2CCOc3ccccc32)n1` (centres unmarked) [Example 11, 3-(Chroman-4-yl)sulfonyl-1-dimethylcarbamoyl-1H-1,2,4-triazole] gave an IC50 of 216 nM.

Molecule `CC(C)N(C)C(=O)n1cnc(S(=O)(=O)[C@@H]2C[C@@H]3CC[C@H]2C3)n1` (relative stereo) [Example 29, 3-(Endo-norbornan-2-yl)sulfonyl-1-(N-methyl-N-isopropylcarbamoyl)-1H-1,2,4-triazole] showed an IC50 of 8.88 nM.

`Cc1cc(C)c(S(=O)(=O)c2ncn(C(=O)N(C)c3ccccc3)n2)c(C)c1` [Example 35, 3-(2,4,6-Trimethylphenyl)sulfonyl-1-(N-methyl-N-phenylcarbamoyl)-1H-1,2,4-triazole] displayed an IC50 of 1510 nM. Against the preceding molecule, the IC50 is about 170-fold higher.

Molecule `CN(C)C(=O)n1cnc(S(=O)(=O)Cc2ccc(F)cc2)n1` [Example 4, 3-(4-Fluorobenzyl)sulfonyl-1-dimethylcarbamoyl-1H-1,2,4-triazole] came in with an IC50 of 657 nM.

Molecule `CN(C)C(=O)n1cnc(S(=O)(=O)CC2CCCCC2)n1` [Example 17, 3-Cyclohexylmethylsulfonyl-1-dimethylcarbamoyl-1H-1,2,4-triazole] came in with an IC50 of 416 nM. Against the preceding molecule, the IC50 is about 1.6-fold lower.

In the case of `CC(C)CN(C)C(=O)n1cnc(S(=O)(=O)[C@@H]2C[C@@H]3CC[C@H]2C3)n1` (relative stereo) [Example 30, 3-(Endo-norbornan-2-yl)sulfonyl-1-(N-methyl-N-isobutylcarbamoyl)-1H-1,2,4-triazole], the IC50 stood at 266 nM. This IC50 is about 1.6-fold lower than that of the molecule before.

In the case of `CN(C)C(=O)n1cnc(S(=O)(=O)CC(C)(C)C)n1` [Example 21, 3-(2-Dimethylpropyl)sulfonyl-1-dimethylcarbamoyl-1H-1,2,4-triazole], the IC50 came to 688 nM.

For `CN(C)C(=O)n1cnc(SC(c2ccccc2)c2ccccc2)n1` [Example 6, 3-(Diphenylmethyl)thio-1-dimethylcarbamoyl-1H-1,2,4-triazole], half-maximal inhibition (IC50) was put at 3460 nM.

Consider “3-(Endo-norbornan-2-yl)sulfonyl-1-(N-methyl-N-phenylcarbamoyl)-1H-1,2,4-triazole [Example 22]”, for which 2290 nM corresponded to half-maximal inhibition (IC50).

`CN(C(=O)n1cnc(S(=O)(=O)[C@@H]2C[C@@H]3CC[C@H]2C3)n1)C(C)(C)C` (relative stereo) [Example 31, 3-(Endo-norbornan-2-yl)sulfonyl-1-(N-methyl-N-tert-butylcarbamoyl)-1H-1,2,4-triazole]: the IC50 was 920 nM. Against the preceding molecule, the IC50 is about 2.5-fold lower.

Consider `Cc1cc(C)c(S(=O)(=O)c2ncn(C(=O)N(C)C)n2)c(C)c1` [Example 33, 3-(2,4,6-Trimethylphenyl)sulfonyl-1-dimethylcarbamoyl-1H-1,2,4-triazole], for which it took 9.51 nM to reach half-maximal inhibition (IC50).

For the molecule `O=C(N1CCCC1)n1cnc(S(=O)(=O)[C@@H]2C[C@@H]3CC[C@H]2C3)n1` (relative stereo) [Example 26, 3-(Endo-norbornan-2-yl)sulfonyl-1-(pyrrolidin-1-yl)carbonyl-1H-1,2,4-triazole], half-maximal inhibition (IC50) was put at 244 nM.

For `CN(C)C(=O)n1cnc(Sc2cc(F)c(C#N)cc2F)n1` [Example 44, 3-(4-Cyano-2,5-difluorophenyl)thio-1-dimethylcarbamoyl-1H-1,2,4-triazole], half-maximal inhibition (IC50) required 318 nM.

Molecule `CCN(CC)C(=O)n1cnc(S(=O)(=O)Cc2ccccc2)n1` [Example 3, 3-Benzylsulfonyl-1-diethylcarbamoyl-1H-1,2,4-triazole] gave an IC50 of 784 nM.

On to `CN(C)C(=O)n1cnc(S(=O)(=O)N2CCCCC2)n1` [Example 54, 3-(Piperidin-1-yl)sulfonyl-1-dimethylcarbamoyl-1H-1,2,4-triazole], for which the IC50 turned out to be 164 nM.

With `Cc1cc(C)c(S(=O)(=O)c2ncn(C(=O)N(C)C(C)C)n2)c(C)c1` [Example 38, 3-(2,4,6-Trimethylphenyl)sulfonyl-1-(N-methyl-N-isopropylcarbamoyl)-1H-1,2,4-triazole], the IC50 turned out to be 1.63 nM.

On to `CN(C)C(=O)n1cnc(S(=O)(=O)N(C)c2ccc(Cl)cc2)n1` [Example 58, 3-[N-(4-chlorophenyl)-N-methylamino]sulfonyl-1-dimethylcarbamoyl-1H-1,2,4-triazole], for which the midpoint of inhibition, the IC50, lay at 15.7 nM.

In the case of `CCCN(C)C(=O)n1cnc(S(=O)(=O)[C@@H]2C[C@@H]3CC[C@H]2C3)n1` (relative stereo) [Example 28, 3-(Endo-norbornan-2-yl)sulfonyl-1-(N-methyl-N-propylcarbamoyl)-1H-1,2,4-triazole], the IC50 was 58.4 nM.

Molecule `Cc1nn(-c2ccccc2)c(C)c1Sc1ncn(C(=O)N(C)C)n1` [Example 48, 3-(3,5-Dimethyl-1-phenylpyrazol-4-yl)thio-1-dimethylcarbamoyl-1H-1,2,4-triazole] returned an IC50 of 1550 nM.

For the molecule `CCN(CC)C(=O)n1cnc(S(=O)(=O)c2c(C)cc(C)cc2C)n1` [Example 34, 3-(2,4,6-Trimethylphenyl)sulfonyl-1-diethylcarbamoyl-1H-1,2,4-triazole], half-maximal inhibition (IC50) required 6630 nM.

Molecule `Cc1nn(-c2ccccc2)c(C)c1S(=O)(=O)c1ncn(C(=O)N(C)C)n1` [Example 49, 3-(3,5-Dimethyl-1-phenylpyrazol-4-yl)sulfonyl-1-dimethylcarbamoyl-1H-1,2,4-triazole] yielded an IC50 of 25.8 nM.

In turn, `CN(C)C(=O)n1cnc(Sc2cccc(Br)n2)n1` [Example 52, 3-(6-Bromo-2-pyridyl)thio-1-dimethylcarbamoyl-1H-1,2,4-triazole] came in with an IC50 of 4790 nM.

The molecule `CC(C)CCS(=O)(=O)c1ncn(C(=O)N(C)C)n1` [Example 20, 3-(3-Methylbutyl)sulfonyl-1-dimethylcarbamoyl-1H-1,2,4-triazole] had an IC50 of 1370 nM.

Consider `CN(C)C(=O)n1cnc(SC2CCOc3ccccc32)n1` (centres unmarked) [Example 10, 3-(Chroman-4-yl)thio-1-dimethylcarbamoyl-1H-1,2,4-triazole], for which the IC50 amounted to 694 nM.
